In US20050096323A1, “Diketopiperazine derivatives to inhibit thrombin” (NovoScience Pharma Inc., priority 1999, published 2005):
Structures can show the parent of a compound that is named as a salt.

What was measured:
[1] = target: T1, thrombin (Homo sapiens, UniProt P00734); experiment: Thrombin inhibition constant (Ki), fluorogenic substrate assay; assay type: biochemical; settings: for Cycloargatroban vs. Argatroban, Ki(Thrombin): thrombin inhibition activity relative to argatroban
T1 construct: purchased Sigma

[2] = test system: SD rats; experiment: Acute myocardial infarction by coronary artery ligation in rats; assay type: in vivo, rat; settings: for CK (u/ml) / LDH (u/ml): serum;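 for CK (u/ml): blood collected at end of 6 h (i.v.) or 8 h (intraduodenal) ECG observation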;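 for LDH (u/ml): blood collected at end of 6 h (i.v.) or 8 h (intraduodenal) ECG observation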
Protocol: The drugs were administered 8 to 10 min after the coronary artery was ligated.

[3] = test system: pooled normal human plasma; experiment: Ex vivo coagulation assay (APTT prolongation); assay type: biochemical; settings: normal citrated human plasma
Protocol: Frozen-pooled human plasma was obtained from Sigma. Measurement of APTT was made using the ELECTRA™ 800 automated coagulometer (Medical Laboratory Automation Inc.) using the automated APTT reagent (SIGMA) as the initiator of clotting according to the manufacture's instructions. The assay was conducted by making a series of dilution of the reference and test compounds in rapidly thawed plasma (compound: plasma=0.1 ml:0.9 ml) followed by adding the mixed solution to the wells of the assay carousel. Tris buffers (pH 7.8 at 25° C.) were used through the entire assay.

[4] = target: T2, tissue plasminogen activator (tPA) (Homo sapiens, UniProt P00750); experiment: tPA inhibition constant (Ki), fluorogenic substrate assay; assay type: biochemical
T2 construct: purchased Sigma
T2 sequence (P00750 36-562, species assumed): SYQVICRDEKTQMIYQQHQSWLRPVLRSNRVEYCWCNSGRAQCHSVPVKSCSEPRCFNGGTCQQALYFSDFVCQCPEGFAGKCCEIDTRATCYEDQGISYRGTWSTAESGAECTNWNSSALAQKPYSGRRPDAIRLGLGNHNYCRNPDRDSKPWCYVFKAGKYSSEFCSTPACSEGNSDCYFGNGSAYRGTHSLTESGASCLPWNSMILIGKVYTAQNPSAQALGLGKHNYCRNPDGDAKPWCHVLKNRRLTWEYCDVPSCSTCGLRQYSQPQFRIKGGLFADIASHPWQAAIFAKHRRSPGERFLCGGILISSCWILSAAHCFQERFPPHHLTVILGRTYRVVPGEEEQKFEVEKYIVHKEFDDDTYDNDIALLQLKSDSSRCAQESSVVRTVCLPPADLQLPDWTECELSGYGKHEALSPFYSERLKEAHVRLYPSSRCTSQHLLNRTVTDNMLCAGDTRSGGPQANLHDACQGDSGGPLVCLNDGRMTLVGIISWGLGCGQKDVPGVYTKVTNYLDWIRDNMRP
Protocol: (§1) The activity and selectivity of the present invention can be identified by determination of the inhibition constant (Ki) for serine proteases such thrombin and trypsin and fibrinolytic enzymes such as urokinase, plasmin and tissue plasminogen activator (tPA). All of enzymes are purchased from Sigma. The general assay conditions are as follows. The fluorogenic substrates are dissolved in DMSO and diluted using assay buffer containing 50 mM Tris.HCl (pH 7.8 at 25° C.), 0.1 M NaCl and 0.1% polyethylene glycol 8000 (PEG 8000). […] The assays were conducted using Hitachi F2500 spectrophotometer under ambient temperature and at the excitation and emission wavelengths of 383 nm and 455 nm, respectively. The typical progressive data of the enzymatic assays are shown in FIGS. 1-3, and the determination of inhibition constant (Ki) is shown in FIG. 4.

[5] = test system: SD rats; experiment: Weight of deep vein thrombosis (inferior vena cava thrombi) in rats; assay type: in vivo, rat; settings: for Thrombi (mg) Dry weight / Thrombi (mg) Wet weight: 4 hours
Protocol: The drug was administered immediately after operation and, 4 hours later, the thrombi were collected and weighted.

[6] = target: T3, plasmin (Homo sapiens, UniProt P00747); experiment: Plasmin inhibition constant (Ki), fluorogenic substrate assay; assay type: biochemical
T3 construct: purchased Sigma
T3 sequence (P00747 581-810 limits assumed, species assumed): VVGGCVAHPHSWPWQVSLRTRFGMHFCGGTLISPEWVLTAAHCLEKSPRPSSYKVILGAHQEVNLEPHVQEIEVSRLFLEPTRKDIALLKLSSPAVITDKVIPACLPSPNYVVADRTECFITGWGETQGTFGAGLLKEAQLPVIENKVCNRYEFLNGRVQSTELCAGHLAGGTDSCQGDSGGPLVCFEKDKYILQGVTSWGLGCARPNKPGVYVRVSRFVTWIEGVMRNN
T3 sequence (P00747 97-580 partner limits assumed, species assumed): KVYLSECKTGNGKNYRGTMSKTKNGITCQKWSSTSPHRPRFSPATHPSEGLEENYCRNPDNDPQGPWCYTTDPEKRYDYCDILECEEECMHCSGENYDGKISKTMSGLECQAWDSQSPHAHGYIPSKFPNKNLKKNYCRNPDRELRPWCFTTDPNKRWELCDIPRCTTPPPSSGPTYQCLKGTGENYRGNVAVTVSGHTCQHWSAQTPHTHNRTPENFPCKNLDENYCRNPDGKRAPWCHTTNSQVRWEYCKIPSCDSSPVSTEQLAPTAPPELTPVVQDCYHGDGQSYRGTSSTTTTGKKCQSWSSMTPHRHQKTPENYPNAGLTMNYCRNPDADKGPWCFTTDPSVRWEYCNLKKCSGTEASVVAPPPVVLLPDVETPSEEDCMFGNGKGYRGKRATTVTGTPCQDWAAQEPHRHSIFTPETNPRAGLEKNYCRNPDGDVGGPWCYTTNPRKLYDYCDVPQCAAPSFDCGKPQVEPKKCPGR
Protocol: as §1

[7] = test system: SD rats; experiment: RT, TT, PT, APTT and FIB in rat plasma after administration; assay type: in vivo; parameters: FIB (Fibrillation) / RT (Clot Retraction Time) / TT (Thrombin Time): unit not given here
Protocol: Blood was taken at 0.5 h and 1.5 h after i.v. injection and at 1 h and 3 h after i.g. and plasma RT,TT,PT,APTT and FIB were determined.

[8] = 0.125 mg/kg i.v., 0 min after ligation (before drug)
[9] = 0.125 mg/kg i.v., 10 min after ligation
[10] = 0.125 mg/kg i.v., 30 min after ligation
[11] = 0.125 mg/kg i.v., 6 h after ligation
[12] = 0.25 mg/kg i.v., 0 min after ligation (before drug)
[13] = 0.25 mg/kg i.v., 10 min after ligation
[14] = 0.25 mg/kg i.v., 30 min after ligation
[15] = 0.25 mg/kg i.v., 6 h after ligation
[16] = 75 mg/kg intraduodenum, 0 min after ligation (before drug)
[17] = 75 mg/kg intraduodenum, 10 min after ligation
[18] = 75 mg/kg intraduodenum, 30 min after ligation
[19] = 75 mg/kg intraduodenum, 6 h after ligation
[20] = i.v. 0.25 mg/kg, first time point (0.5 h)
[21] = i.v. 0.25 mg/kg, second time point (1.5 h)

CC1CNc2c(cccc2S(=O)(=O)N2C(=O)C3CC(C)CCN3C(=O)C2CCCNC(=N)N)C1 [NPI1999, (3S,6R,8R)-Bicyclo[4.4.0]-1,4-diaza-3-(3-guanidinopropyl)-4-N-(1,2,3,4-tetrahydro-3-methyl-8-quinolinesulfonyl)-8-methyl-2,5-decanedione, hydrochoride salt] was tested, and the Ki ([1]; Table II, method of example 9) was 0.02 to 0.04 µM, the Ki ([1]; substrate Tos-Gly-Pro-Arg-AMC, pH 7.8) was 0.04 µM and the “Cycloargatroban vs. Argatroban, Ki(Thrombin)” value ([1]; listed as Cycloargatroban) was −2.1 fold. For the same molecule, the “Cycloargatroban vs. Argatroban, Ki(Thrombin)” value ([1]; listed as cycloargatroban) was 2.1 fold, the “Infarction Area (%)” value ([2]; 0.125 mg/kg i.v.) was 26.40 ± 7.42 % and the “S point in electrocardiogram” value [2, 8] was 0.33 ± 0.12. The “T wave in electrocardiogram” value [2, 8] was 0.19 ± 0.15, the “S point in electrocardiogram” value [2, 9] was 0.34 ± 0.19 and the “T wave in electrocardiogram” value [2, 9] was 0.17 ± 0.18. For the same molecule, the “S point in electrocardiogram” value [2, 10] was 0.27 ± 0.21, the “T wave in electrocardiogram” value [2, 10] was 0.18 ± 0.23 and the “S point in electrocardiogram” value [2, 11] was 0.08 ± 0.14. The “T wave in electrocardiogram” value [2, 11] was 0.02 ± 0.16, the “Infarction Area (%)” value ([2]; 0.25 mg/kg i.v.) was 25.66 ± 7.32 % and the “S point in electrocardiogram” value [2, 12] was 0.33 ± 0.17. For the same molecule, the “T wave in electrocardiogram” value [2, 12] was 0.19 ± 0.11, the “S point in electrocardiogram” value [2, 13] was 0.42 ± 0.20 and the “T wave in electrocardiogram” value [2, 13] was 0.27 ± 0.13. The “S point in electrocardiogram” value [2, 14] was 0.34 ± 0.22, the “T wave in electrocardiogram” value [2, 14] was 0.26 ± 0.17 and the “S point in electrocardiogram” value [2, 15] was 0.24 ± 0.18. The “T wave in electrocardiogram” value [2, 15] was 0.15 ± 0.11, the “Infarction Area (%)” value ([2]; 75 mg/kg intraduodenum) was 30.98 ± 7.41% and the “S point in electrocardiogram” value [2, 16] was 0.26 ± 0.13. For the same molecule, the “T wave in electrocardiogram” value [2, 16] was 0.12 ± 0.11, the “S point in electrocardiogram” value [2, 17] was 0.28 ± 0.07 and the “T wave in electrocardiogram” value [2, 17] was 0.15 ± 0.09. For the same molecule, the “S point in electrocardiogram” value [2, 18] was 0.28 ± 0.10, the “T wave in electrocardiogram” value [2, 18] was 0.18 ± 0.11 and the “S point in electrocardiogram” value [2, 19] was 0.18 ± 0.22. For the same molecule, the “T wave in electrocardiogram” value [2, 19] was 0.13 ± 0.11, the “infarction area and serum LDH and CK” value ([2]; i.v. 0.25 mg/kg and 0.125 mg/kg) was “significantly reduced” and the “infarction area and serum LDH and CK” value ([2]; intra-duodenum 75 mg/kg) was “no significant effects”. The “CK (u/ml)” value ([2]; 0.125 mg/kg i.v.) was 52.75 ± 16.25 u/ml, the “LDH (u/ml)” value ([2]; 0.125 mg/kg i.v.) was 6254.1 ± 220.1 u/ml and the “CK (u/ml)” value ([2]; 0.25 mg/kg i.v.) was 56.52 ± 14.48 u/ml. The “LDH (u/ml)” value ([2]; 0.25 mg/kg i.v.) was 6125.7 ± 385.5 u/ml, the “CK (u/ml)” value ([2]; 75 mg/kg intraduodenum) was 53.90 ± 20.60 u/ml and the “LDH (u/ml)” value ([2]; 75 mg/kg intraduodenum) was 6393.3 ± 308.7 u/ml. The “effect on APTT compared with argatroban” value [3] was “less strong effect”, the “effect on activated partial thromboplastin time (APTT)” value ([3]; FIG. 5) was “prolonged the APTT in a dose dependent manner” and the “Cycloargatroban [Ki (Enzyme)/Ki (Thrombin)] vs. Argatroban [Ki (Enzyme)/Ki (Thrombin)]” value ([4]; enzyme = tPA) was “+1.2 fold”. For the same molecule, the Ki ([4]; substrate Boc-L-(p-F) FPR-ANSNH-C2H5) was 2020 µM, the “Thrombi (mg) Dry weight” value ([5]; 0.125 mg/kg i.v.) was 7.62 ± 6.18 mg and the “Thrombi (mg) Wet weight” value ([5]; 0.125 mg/kg i.v.) was 19.84 ± 12.17 mg. The “Thrombi (mg) Dry weight” value ([5]; 0.25 mg/kg i.v.) was 6.70 ± 4.34 mg, the “Thrombi (mg) Wet weight” value ([5]; 0.25 mg/kg i.v.) was 19.63 ± 12.02 mg and the “Thrombi (mg) Dry weight” value ([5]; 0.50 mg/kg i.v.) was 5.81 ± 3.25 mg. The “Thrombi (mg) Wet weight” value ([5]; 0.50 mg/kg i.v.) was 18.85 ± 8.61 mg, the “Thrombi (mg) Dry weight” value ([5]; 75 mg/kg intraduodenum) was 11.66 ± 4.23 mg and the “Thrombi (mg) Wet weight” value ([5]; 75 mg/kg intraduodenum) was 32.02 ± 19.34 mg. The thrombi weights ([5]; i.v. groups (0.125, 0.25, 0.5 mg/kg)) was “thrombi weights were decreased”, the thrombi weights ([5]; intra-duodenum 75 mg/kg) was “no obvious effect” and the “Cycloargatroban [Ki (Enzyme)/Ki (Thrombin)] vs. Argatroban [Ki (Enzyme)/Ki (Thrombin)]” value ([6]; enzyme = plasmin) was −0.67 fold. The Ki ([6]; substrate D-Ala-Leu-Lys-AMC) was 528 µM, the “APTT (Activated Partial Prothromboplastin Time)” value ([7]; 0.125 mg/kg i.v., 0.5 h) was 28.0 ± 4.0 and the “FIB (Fibrillation)” value ([7]; 0.125 mg/kg i.v., 0.5 h) was 4.2 ± 0.9. The “PT (Prothrombin Time)” value ([7]; 0.125 mg/kg i.v., 0.5 h) was 25.3 ± 5.8, the “RT (Clot Retraction Time)” value ([7]; 0.125 mg/kg i.v., 0.5 h) was 83.7 ± 9.7 and the “TT (Thrombin Time)” value ([7]; 0.125 mg/kg i.v., 0.5 h) was 53.6 ± 11.1. For the same molecule, the “APTT (Activated Partial Prothromboplastin Time)” value ([7]; 0.125 mg/kg i.v., 1.5 h) was 28.1 ± 4.6, the “FIB (Fibrillation)” value ([7]; 0.125 mg/kg i.v., 1.5 h) was 4.5 ± 1.2 and the “PT (Prothrombin Time)” value ([7]; 0.125 mg/kg i.v., 1.5 h) was 25.0 ± 7.1. The “RT (Clot Retraction Time)” value ([7]; 0.125 mg/kg i.v., 1.5 h) was 60.4 ± 15.9, the “TT (Thrombin Time)” value ([7]; 0.125 mg/kg i.v., 1.5 h) was 39.2 ± 12.5 and the “APTT (Activated Partial Prothromboplastin Time)” value ([7]; 0.25 mg/kg i.v., 0.5 h) was 46.7 ± 15.0. The “FIB (Fibrillation)” value ([7]; 0.25 mg/kg i.v., 0.5 h) was 2.09 ± 0.5, the “PT (Prothrombin Time)” value ([7]; 0.25 mg/kg i.v., 0.5 h) was 43.1 ± 17.8 and the “RT (Clot Retraction Time)” value ([7]; 0.25 mg/kg i.v., 0.5 h) was 107.6 ± 33.7. The “TT (Thrombin Time)” value ([7]; 0.25 mg/kg i.v., 0.5 h) was 62.1 ± 15.8, the “APTT (Activated Partial Prothromboplastin Time)” value ([7]; 0.25 mg/kg i.v., 1.5 h) was 34.1 ± 10.3 and the “FIB (Fibrillation)” value ([7]; 0.25 mg/kg i.v., 1.5 h) was 2.7 ± 0.8. For the same molecule, the “PT (Prothrombin Time)” value ([7]; 0.25 mg/kg i.v., 1.5 h) was 34.6 ± 10.1, the “RT (Clot Retraction Time)” value ([7]; 0.25 mg/kg i.v., 1.5 h) was 78.6 ± 16 and the “TT (Thrombin Time)” value ([7]; 0.25 mg/kg i.v., 1.5 h) was 49.6 ± 10.9. The “APTT (Activated Partial Prothromboplastin Time)” value ([7]; 75 mg/kg i.g., 1 h) was 30.2 ± 6.9, the “FIB (Fibrillation)” value ([7]; 75 mg/kg i.g., 1 h) was 4.4 ± 0.7 and the “PT (Prothrombin Time)” value ([7]; 75 mg/kg i.g., 1 h) was 26.6 ± 5.5. For the same molecule, the “RT (Clot Retraction Time)” value ([7]; 75 mg/kg i.g., 1 h) was 74.8 ± 16.6, the “TT (Thrombin Time)” value ([7]; 75 mg/kg i.g., 1 h) was 53.2 ± 10.0 and the “APTT (Activated Partial Prothromboplastin Time)” value ([7]; 75 mg/kg i.g., 3.0 h) was 25.7 ± 4.0. The “FIB (Fibrillation)” value ([7]; 75 mg/kg i.g., 3.0 h) was 4.5 ± 0.6, the “PT (Prothrombin Time)” value ([7]; 75 mg/kg i.g., 3.0 h) was 26.6 ± 5.7 and the “RT (Clot Retraction Time)” value ([7]; 75 mg/kg i.g., 3.0 h) was 77 ± 29.9. The “TT (Thrombin Time)” value ([7]; 75 mg/kg i.g., 3.0 h) was 42.5 ± 9.4, the “RT, TT, PT, APTT, FIB indexes” value ([7]; i.g. 75 mg/kg, 1 h or 3 h) was “None of the indexes was significantly affected” and the “RT, TT, PT, APTT, FIB indexes” value ([7]; i.v. 0.125 mg/kg, first time point) was “RT alone was increased”. For the same molecule, the “RT, TT, PT, APTT, FIB indexes” value ([7]; i.v. 0.125 mg/kg, second time point) was “none of the indexes were affected significantly”, the FIB [7, 20] was “reduced” and the “RT, TT, PT and APTT” value [7, 20] was “significantly increased”. The “APTT and FIB” value [7, 21] was “no significantly affected” and the “RT, TT, PT” value [7, 21] was “Only RT,TT,PT were increased”.
